From paper PMC11316111, “Mechanism of allosteric inhibition of human p97/VCP ATPase and its disease mutant by triazole inhibitors” (Communications Chemistry, 2024)
“And” between values parts separate entries of the source, which are not always exact repeats. Identical values can stand only once. Like-named read-outs stand apart in the source and are kept apart here.

How the values were obtained:
[1] = system: HCT116 p97P510S; assay: Cellular viability, resistant HCT116 p97P510S; type: cell-based
Experimental: (§1) Drug-resistant HCT116 cell lines were derived using the method previously described and with certain modifications[70],[99]. […] Drug-resistant clones were transferred into a new plate for passaging, and subsequently used to study drug resistance and identify the p97 mutations.
(§2) Anti-proliferative activity was measured using CellTiter Glo® Luminescent Cell Viability Assay (Promega G7572) according to the manufacturer’s procedure as described. RMPI1640 containing 5% FBS and 1% penicillin-streptomycin was used as a cell viability medium. A standard curve of HCT116 was generated for finding the linear relationship between the relative luminescence unit and the number of viable cells. […] 24 h after seeding, 8 μL of media containing 5% DMSO was added to each well, and the plate was incubated for an additional 48 h. To test the anti-proliferative activity of p97 inhibitors, we seeded HCT116 at 750 cells per well according to the linear range. […] After 48 h of treatment, cell viability was measured by adding CellTiter Glo reagent and reading the signal with a BioTek Synergy Neo plate reader (Agilent, Santa Clara, CA). The IC50 values were calculated from four replicates using the percentage of growth of treated cells versus the DMSO control. The results were analyzed using GraphPad Prism 7.0 (GraphPad, Boston, MA).

[2] = system: HCT116 p97K512N; assay: Cellular viability, resistant HCT116 p97K512N; type: cell-based
Experimental: as §1, §2

[3] = system: HCT116 p97F618S; assay: Cellular viability, resistant HCT116 p97F618S; type: cell-based
Experimental: as §1, §2

[4] = system: HCT116 p97WT; assay: HCT116 proliferation assay (CellTiter Glo); type: cell-based; design: key to cellular viability of HCT116: % of DMSO control viability; conditions: for cellular viability of HCT116 / viability at 0.06 µM / viability at 0.17 µM / viability at 0.52 µM / viability at 1.6 µM / viability at 4.7 µM / viability at 14 µM / viability at 42.1 µM: single replicates; for viability at 0.06 µM: HCT-116, 0.06 µM; for viability at 0.06 µM / viability at 0.17 µM / viability at 0.52 µM / viability at 1.6 µM / viability at 4.7 µM / viability at 14 µM / viability at 42.1 µM: read-out: cellular viability of HCT116; for viability at 0.17 µM: HCT-116, 0.17 µM; for viability at 0.52 µM: HCT-116, 0.52 µM; for viability at 1.6 µM: HCT-116, 1.60 µM; for viability at 4.7 µM: HCT-116, 4.70 µM; for viability at 14 µM: HCT-116, 14.0 µM; for viability at 42.1 µM: HCT-116, 42.1 µM
Experimental: as §2

[5] = system: Ub^G76V-GFP/ODD-Luc HeLa cells; assay: Cellular Ub^G76V-GFP accumulation assay; type: cell-based; conditions: Table S3, four replicates, read-out: UbG76V-GFP EC50
Experimental: ImageXpress high-content confocal microscope (Molecular Devices, LLC., San Jose, CA) was used to image cells at GFP channel. The percentage of Ub^G76V-GFP accumulation (%Acc) is calculated using the following formula: […]
The IC50 values were calculated by fitting the %Acc from four replicates with various concentrations of compounds using GraphPad Prism 7.0 (GraphPad, Boston, MA).

[6] = molecular target: T1, wild-type p97 (p97^WT) (Homo sapiens, UniProt P55072); assay: p97 ATPase activity (Biomol Green), wild-type p97; type: biochemical; conditions: for IC50: 200 μM ATP, six replicates; for Ratio of IC50 values for mutants to IC50 values for wild-type p97, WT: WT/WT reference
T1 construct: made in house
T1 sequence (P55072 whole entry): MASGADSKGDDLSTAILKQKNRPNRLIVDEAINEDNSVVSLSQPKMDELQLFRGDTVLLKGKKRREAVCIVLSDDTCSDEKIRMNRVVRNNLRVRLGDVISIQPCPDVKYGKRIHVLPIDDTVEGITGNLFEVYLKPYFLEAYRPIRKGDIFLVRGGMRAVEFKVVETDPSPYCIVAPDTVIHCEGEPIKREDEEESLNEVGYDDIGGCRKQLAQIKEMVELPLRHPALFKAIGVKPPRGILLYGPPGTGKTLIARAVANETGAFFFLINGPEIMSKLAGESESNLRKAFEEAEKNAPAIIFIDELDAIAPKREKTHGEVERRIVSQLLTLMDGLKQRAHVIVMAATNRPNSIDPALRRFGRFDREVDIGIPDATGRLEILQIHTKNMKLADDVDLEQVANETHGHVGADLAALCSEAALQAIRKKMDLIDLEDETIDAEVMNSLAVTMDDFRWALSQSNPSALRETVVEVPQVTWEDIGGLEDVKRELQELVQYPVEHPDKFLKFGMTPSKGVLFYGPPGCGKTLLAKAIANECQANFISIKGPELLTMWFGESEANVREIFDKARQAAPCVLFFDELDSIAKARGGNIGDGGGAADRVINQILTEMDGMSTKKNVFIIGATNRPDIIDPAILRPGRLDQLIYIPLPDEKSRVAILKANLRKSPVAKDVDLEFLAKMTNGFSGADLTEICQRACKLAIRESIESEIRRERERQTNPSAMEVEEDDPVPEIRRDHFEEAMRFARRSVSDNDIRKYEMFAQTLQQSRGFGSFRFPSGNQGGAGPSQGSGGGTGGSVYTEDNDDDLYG
Experimental: (§3) Results were calculated from 6 replicates using GraphPad Prism 7.0 (GraphPad Software, Boston, MA).

[7] = molecular target: T1, wild-type p97 (p97^WT); design: method as in PMID 26822609; conditions: read-out: IC50 (p97 ATPase); cited from earlier work
[8] = molecular target: T2, p97^N616F (Homo sapiens, UniProt P55072, N616F); assay: p97 ATPase activity (Biomol Green), N616F mutant; type: biochemical; conditions: for IC50: 200 μM ATP, six replicates; for Ratio of IC50 values for mutants to IC50 values for wild-type p97, N616F: N616F/WT
T2 construct: made in house
T2 sequence (P55072 whole entry N616F): as the sequence (P55072 whole entry) above, with N616F counted along it
Experimental: as §3

[9] = molecular target: T3, p97^R155H (Homo sapiens, UniProt P55072, R155H); assay: p97 ATPase activity (Biomol Green), R155H mutant; type: biochemical; conditions: for IC50: 200 μM ATP, six replicates; for Ratio of IC50 values for mutants to IC50 values for wild-type p97, R155H: R155H/WT
T3 construct: enabling us to acquire high-resolution biomolecular structures of full-length p97; made in house
T3 sequence (P55072 whole entry R155H): as the sequence (P55072 whole entry) above, with R155H counted along it
Experimental: as §3

[10] = molecular target: T4, p97^P510S (Homo sapiens, UniProt P55072, P510S); assay: p97 ATPase activity (Biomol Green), P510S mutant; type: biochemical; conditions: for IC50: 200 μM ATP, six replicates; for Ratio of IC50 values for mutants to IC50 values for wild-type p97, P510S: P510S/WT
T4 construct: made in house
T4 sequence (P55072 whole entry P510S): as the sequence (P55072 whole entry) above, with P510S counted along it
Experimental: as §3

[11] = molecular target: T5, p97^F618S (Homo sapiens, UniProt P55072, F618S); assay: p97 ATPase activity (Biomol Green), F618S mutant; type: biochemical; conditions: for IC50: 200 μM ATP, six replicates; for Ratio of IC50 values for mutants to IC50 values for wild-type p97, F618S: F618S/WT
T5 construct: made in house
T5 sequence (P55072 whole entry F618S): as the sequence (P55072 whole entry) above, with F618S counted along it
Experimental: as §3

[12] = molecular target: T6, p97^K512N (Homo sapiens, UniProt P55072, K512N); assay: p97 ATPase activity (Biomol Green), K512N mutant; type: biochemical; conditions: for IC50: 200 μM ATP, six replicates; for Ratio of IC50 values for mutants to IC50 values for wild-type p97, K512N: K512N/WT
T6 construct: made in house
T6 sequence (P55072 whole entry K512N): as the sequence (P55072 whole entry) above, with K512N counted along it
Experimental: as §3

[13] = Homo sapiens, HCT-116, Table S3, four replicates
[14] = Homo sapiens, HCT-116, Table S6, 48-hour treatment, read-out: Cell viability of HCT116 IC50
[15] = Homo sapiens, HCT-116, Table S3, cellular viability, four replicates, read-out: IC50 HCT116 p97WT

IC50 [1, 13] [nM]	IC50 [4, 14] [nM]	EC50 ([5]; Homo sapiens, HeLa) [nM]	% ATPase activity ([6]; inhibitor 0.000905 µM) [%]	% ATPase activity ([6]; inhibitor 0.002716 µM) [%]	% ATPase activity ([6]; inhibitor 0.008148 µM) [%]	% ATPase activity ([6]; inhibitor 0.024444 µM) [%]	% ATPase activity ([6]; inhibitor 0.073333 µM) [%]	% ATPase activity ([6]; inhibitor 0.220000 µM) [%]	IC50 [4, 15] [nM]	increase of IC50 versus p97^WT, N616F [8]	IC50 [8] [nM]	Ratio of IC50 values for mutants to IC50 values for wild-type p97, N616F [8]	IC50 [9] [nM]	Ratio of IC50 values for mutants to IC50 values for wild-type p97, R155H [9]	increase of IC50 versus p97^WT, P510S [10]	IC50 [10] [nM]	Ratio of IC50 values for mutants to IC50 values for wild-type p97, P510S [10]	increase of IC50 versus p97^WT, F618S [11]	IC50 [11] [nM]	Compound	also measured
9200	–	2000	106	98	88	55	28	14	2000	–	–	–	–	–	–	–	–	–	–	Cc1cc(OCc2nnc(SC3CCCC3)n2-c2cccnc2)ccc1-c1ccc(S(C)(=O)=O)cc1 [NMS-873, reference compound]	–
–	–	–	–	–	–	–	–	–	–	–	–	–	–	–	–	–	–	–	–	CC(C)N1CCN(CCNC2CCN(c3cccc(-c4cc5cc(F)ccc5[nH]4)c3)CC2)CC1 [UPCDC30245]	IC50 [7]: 27 nM
–	–	660	102	90	71	31	23	14	830	more than 30 fold	5340	334	15	0.9	more than 30 fold	2800	175	more than 30 fold	1510	C[C@@H]1CN(C(=O)Cn2ncc(-c3cc(F)c(OCc4nnc(S[C@H]5C=CCCC5)n4-c4cccnc4)cc3F)n2)C[C@H](C)O1 [NSC819701]	Ratio of IC50 values for mutants to IC50 values for wild-type p97, F618S [11]: 94; IC50 [6]: 16 nM; Ratio of IC50 values for mutants to IC50 values for wild-type p97, WT [6]: 1; increase of IC50 versus p97^WT, K512N [12]: 7.5 fold; IC50 [12]: 120 nM; Ratio of IC50 values for mutants to IC50 values for wild-type p97, K512N [12]: 7.5
–	–	–	–	–	–	–	–	–	–	–	–	–	–	–	–	–	–	–	–	CC1CCCC(C)N1CCOc1cc([N+](=O)[O-])ccc1C#N (centres unmarked) [UPCDC30733]	IC50 ([1]; Table S3, four replicates): 9600 nM; IC50 ([2]; Table S3, four replicates): 25000 nM; IC50 ([3]; Table S3, four replicates): 21000 nM; IC50 ([4]; Table S3, cellular viability, four replicates, read-out: IC50 HCT116 p97WT): 680 nM; EC50 [5]: 530 nM
–	–	870	99	92	72	32	16	12	750	more than 30 fold	> 6600	> 440	14	0.9	more than 30 fold	2320	155	more than 30 fold	1750	CCC(=O)NCC#Cc1cc(F)c(OCc2nnc(S[C@H]3C=CCCC3)n2-c2cccnc2)cc1F [NSC804515]	IC50 [6]: 15 nM; Ratio of IC50 values for mutants to IC50 values for wild-type p97, WT [6]: 1; increase of IC50 versus p97^WT, K512N [12]: 12 fold; IC50 [12]: 180 nM; Ratio of IC50 values for mutants to IC50 values for wild-type p97, K512N [12]: 12
6900	296	230	98	90	67	27	15	16	390	121 fold	1810	121	11	0.7	61 fold	910	61	31 fold	460	CN1CCC(NC(=O)OCC#Cc2c(F)cc(OCc3nnc(S[C@H]4C=CCCC4)n3-c3cccnc3)cc2F)CC1 [NSC799462]	Ratio of IC50 values for mutants to IC50 values for wild-type p97, F618S [11]: 31; IC50 [6]: 15 nM; Ratio of IC50 values for mutants to IC50 values for wild-type p97, WT [6]: 1; increase of IC50 versus p97^WT, K512N [12]: 3 fold; IC50 [12]: 45 nM; Ratio of IC50 values for mutants to IC50 values for wild-type p97, K512N [12]: 3; cellular viability of HCT116 ([4]; 0.06 µM): 105 (2×) and 108; cellular viability of HCT116 ([4]; 0.17 µM): 93 (2×) and 96; cellular viability of HCT116 ([4]; 1.60 µM, 1.6 µM): 4; cellular viability of HCT116 ([4]; 42.1 µM): 1; viability at 0.06 µM ([4]; Homo sapiens): 100%; viability at 0.17 µM ([4]; Homo sapiens): 94%; viability at 0.52 µM ([4]; Homo sapiens): 6%; viability at 1.6 µM ([4]; Homo sapiens): 5%; viability at 4.7 µM ([4]; Homo sapiens): 5%; viability at 14 µM ([4]; Homo sapiens): 5%; viability at 42.1 µM ([4]; Homo sapiens): 2%
10300	296	270	–	–	–	–	–	–	290	–	–	–	–	–	–	–	–	–	–	CN1CCC(NC(=O)OCC#Cc2cc(F)c(OCc3nnc(S[C@H]4C=CCCC4)n3-c3cccnc3)cc2F)CC1 [UPCDC30766]	IC50 [2, 13]: 7300 nM; cellular viability of HCT116 ([4]; 0.06 µM): 99 and 98 and 101; cellular viability of HCT116 ([4]; 0.17 µM): 95 and 90; cellular viability of HCT116 ([4]; 0.52 µM): 6; cellular viability of HCT116 ([4]; 14.0 µM): 3; cellular viability of HCT116 ([4]; 42.1 µM): 1; viability at 0.06 µM ([4]; Homo sapiens): 94%; viability at 0.17 µM ([4]; Homo sapiens): 97%; viability at 0.52 µM ([4]; Homo sapiens): 5%; viability at 1.6 µM ([4]; Homo sapiens): 4%; viability at 4.7 µM ([4]; Homo sapiens): 5%; viability at 14 µM ([4]; Homo sapiens): 4%; viability at 42.1 µM ([4]; Homo sapiens): 2%

Compound	IC50 [1, 13] [nM]	IC50 [4, 14] [nM]	EC50 ([5]; Homo sapiens, HeLa) [nM]	% ATPase activity ([6]; inhibitor 0.000905 µM) [%]	% ATPase activity ([6]; inhibitor 0.002716 µM) [%]	% ATPase activity ([6]; inhibitor 0.008148 µM) [%]	% ATPase activity ([6]; inhibitor 0.024444 µM) [%]	% ATPase activity ([6]; inhibitor 0.073333 µM) [%]	% ATPase activity ([6]; inhibitor 0.220000 µM) [%]	IC50 [4, 15] [nM]	increase of IC50 versus p97^WT, N616F [8]	IC50 [8] [nM]	Ratio of IC50 values for mutants to IC50 values for wild-type p97, N616F [8]	IC50 [9] [nM]	Ratio of IC50 values for mutants to IC50 values for wild-type p97, R155H [9]	increase of IC50 versus p97^WT, P510S [10]	IC50 [10] [nM]	Ratio of IC50 values for mutants to IC50 values for wild-type p97, P510S [10]	increase of IC50 versus p97^WT, F618S [11]	IC50 [11] [nM]	also measured
Cc1cc2c(C(N)=O)cccc2n1-c1nc2c(c(NCc3ccccc3)n1)COCC2 [CB-5083, 1-[4-(benzylamino)-5H,7H,8H-pyrano[3d,[4]]pyrimidin-2-yl]-2-methyl-1H-indole-4-carboxamide, reference compound]	1000	344	430	–	–	–	–	–	–	–	–	–	–	–	–	–	–	–	–	–	IC50 [2, 13]: 500 nM; IC50 [3, 13]: 600 nM; IC50 ([4]; Homo sapiens, HCT-116, read-out: IC50 HCT116 p97WT): 400 nM
